Test results as given in patent publication EP1266655A1, “ENTERIC GRANULAR PREPARATIONS OF HARDLY WATER SOLUBLE DRUGS CHARACTERIZED BY CONTAINING WATER-REPELLENT COMPONENT” (SHIONOGI & CO., LTD., priority 2000, dated 2001).
Values after ≈ are worked out from the molar mass of the structure shown.

Test: Solubility of Compound A in several test solutions
Assay type: physicochemical
Excerpt: Compound A was used as an insoluble active ingredient in the following references and examples.

solubility at 3 h (Water, 3 hours, final pH 5.81): 5.56 µg/mL (≈ 12.6 µM)
solubility at 6 h (Water, 6 hours, final pH 5.81): 5.93 µg/mL (≈ 13.4 µM)
solubility at 3 h (jp-2 solution, JP-2 Sol., 3 hours, final pH 6.84): 81.1 µg/mL (≈ 184 µM)
solubility at 6 h (jp-2 solution, JP-2 Sol., 6 hours, final pH 6.84): 81.7 µg/mL (≈ 185 µM)
solubility at 3 h (ph 6.0 test solution, pH6.0, 3 hours, final pH 6.08): 15.2 µg/mL (≈ 34.4 µM)
solubility at 6 h (ph 6.0 test solution, pH6.0, 6 hours, final pH 6.08): 15.6 µg/mL (≈ 35.3 µM)
solubility at 3 h (ph 7.8 test solution, pH7.8, 3 hours, final pH 7.6): 488 µg/mL (≈ 1100 µM)
solubility at 6 h (ph 7.8 test solution, pH7.8, 6 hours, final pH 7.6): 489 µg/mL (≈ 1110 µM)
solubility at 3 h (ph 8.0 test solution, pH8.0, 3 hours, final pH 7.76): 653 µg/mL (≈ 1480 µM)
solubility at 6 h (ph 8.0 test solution, pH8.0, 6 hours, final pH 7.76): 676 µg/mL (≈ 1530 µM)
solubility at 3 h (ph 8.5 test solution, pH8.5, 3 hours, final pH 8.29): 6200 µg/mL (≈ 14000 µM)
solubility at 6 h (ph 8.5 test solution, pH8.5, 6 hours, final pH 8.29): 6220 µg/mL (≈ 14100 µM)
Compound: CC1(C)[C@H]2C[C@H](C/C=C\CCCC(=O)O)[C@@H](NC(=O)c3csc4ccc(O)cc34)[C@@H]1C2 [Compound A, (Z)-7-[(1R,2R,3S,5S)-2-(5-hydroxybenzo[b]thiophen-3-ylcarbonylamino)-10-norpinan-3-yl]-5-heptenoic acid]
